Values joined by “and” are separate entries in the source; they are usually repeats but may differ in a detail not shown here. Equal values may be shown once. Read-outs that look alike come from different tables or passages of the source. One block for each molecule: values may come before it.
Tests used:
[1] = at clinically relevant doses; cited from earlier work
[2] = Toxicity in patients (CTCAE version 4.0, patient diaries) per study phase; type: in vivo, human
Source text: Toxicity was described as the incidence of toxicity per phase. This was corrected for baseline toxicity and was only taken into account in case of an increase in CTCAE grade per PK sampling day.

[3] = parameters: method as in PMID 29065985; settings: cited from earlier work
[4] = Sorafenib concentration in 3-mm skin biopsies of patients (LC-MS/MS); type: in vivo, human
Protocol: A 3-mm skin biopsy was obtained at days 1 and 15 of the study during PK sampling days for pharmacokinetic analysis. Skin biopsies were taken from either the forearm or the shoulder region, but always from the same region at the same timepoint in an individual patient during the two consecutive PK sampling days. If patients had HFSR lesions at the hand at the first PK day, an additional skin biopsy was performed from the thenar eminence region of the hand for pathologic analysis on days 1 and 15. The biopsies were graded according to the scoring for interface dermatitis as used for graft-versus-host disease by an experienced pathologist (J.D.).

clinical = settings: human, plasma, oral
Protocol: Patients were admitted to the hospital on days 1 and 15 of the study for pharmacokinetic blood sampling. […] Blood samples were processed into plasma within 30 min, by vortex mixing and centrifugation for 10 min at 2500× g at 4 °C. Plasma concentrations were determined using a validated liquid chromatography tandem mass spectrometry (LC-MS/MS) method [18], at both the laboratory of Translational Pharmacology in the Erasmus MC, Rotterdam, and the laboratory of Pharmaceutics and Pharmaceutical Chemistry, Ohio State University, OH.
The point estimates and CIs were transformed back to the original scale in order to give the point estimates for the ratio of the geometric means and the CIs. Tmax was analyzed by means of the Wilcoxon signed rank test and described with medians and interquartile ranges. Toxicity was described as the incidence of toxicity per phase. This was corrected for baseline toxicity and was only taken into account in case of an increase in CTCAE grade per PK sampling day.

[5] = plasma, relative difference of geometric means
[6] = plasma, sorafenib monotherapy (day 1)

Structure (SMILES): CCCN(CCC)S(=O)(=O)c1ccc(C(=O)O)cc1 [Probenecid, probenecid]
plasma concentrations achieved [1]: higher than 200 µM
occurrence of HFSR, rash, anorexia, and fatigue ([2]; during probenecid administration (concomitant with sorafenib)): 65%

difference in sorafenib plasma AUC between patients with or without liver cirrhosis (90% CI: −32.9% to 30.7%, P = 0.73): −6.3%
difference in sorafenib plasma Ctrough between patients with or without liver cirrhosis (90% CI: −46.8% to 61.3%, P = 0.81): −7.4%
AUC(0-t) (human, plasma, oral): 33500 ng·h/mL
Cmax (human, plasma, oral, Cmax (CV%) geomean, plasma, sorafenib monotherapy (day 1)): 4460 ng/mL
Tmax (human, plasma, oral, Tmax (IQR) median, plasma, sorafenib monotherapy (day 1)): 3.7 h
RD sorafenib monotherapy vs. sorafenib + probenecid (90% CI), Cmax [5]: −25.1% (−44.3% to −19.7%)
RD sorafenib monotherapy vs. sorafenib + probenecid (90% CI), Ctrough [5]: −26.0% (−43.4% to −3.4%)
Ctrough (CV%) geomean [6]: 2125.5 (60) μg/mL
decrease of geometric mean plasma AUC0–12 h with concomitant probenecid (vs sorafenib alone, decrease): 27% and 26.8%
decrease of plasma Cmax with concomitant probenecid (vs sorafenib alone, decrease): 25.1%
decrease of plasma Ctrough with concomitant probenecid (vs sorafenib alone, decrease): 26.0%
Kp at 15 study day ([4]; human, skin and plasma, oral): 0.00147
RD sorafenib monotherapy vs. sorafenib + probenecid (90% CI), sorafenib concentration in keratinocytes ([4]; skin biopsy): −28.1% (−46.3% to −3.7%)
decrease of sorafenib concentration in skin in the presence of probenecid ([4]; vs sorafenib alone, decrease): 28.1%
Cmax (clinical): 3340 ng/mL
Tmax (clinical): 2.2 h
AUC(0-t) (clinical; 500 mg): 24500 ng·h/mL
Structure (SMILES): CNC(=O)c1cc(Oc2ccc(NC(=O)Nc3ccc(Cl)c(C(F)(F)F)c3)cc2)ccn1 [Sorafenib, sorafenib]
clinical incidence of HFSR ≥ grade 3 [3]: 20%
Anorexia, Grade 1–2, patients ([2]; N = 16 per phase): 4
Constipation, Grade 1–2, patients ([2]; N = 16 per phase): 2
Diarrhea, Grade 1–2, patients ([2]; N = 16 per phase): 1
Fatigue, Grade 1–2, patients ([2]; N = 16 per phase): 2
Fever, Grade 1–2, patients ([2]; N = 16 per phase): 1
HFSR, Grade 1–2, patients ([2]; N = 16 per phase): 3
Nausea, Grade 1–2, patients ([2]; N = 16 per phase): 1
Oral mucositis, Grade 1–2, patients ([2]; N = 16 per phase): 1
Pain, Grade 1–2, patients ([2]; N = 16 per phase): 1
Pain, Grade 3, patients ([2]; N = 16 per phase): 1
Rash, Grade 1–2, patients ([2]; N = 16 per phase): 1
Vomiting, Grade 1–2, patients ([2]; N = 16 per phase): 0
Serious adverse events (SAE) ([2]; N = 16 per phase, assumed not related to study drugs): 1
occurrence of HFSR, rash, anorexia, and fatigue ([2]; during sorafenib monotherapy): 43%
patients in whom HFSR occurred ([2]; whole study): 10 of 16 patients

RD sorafenib monotherapy vs. sorafenib + probenecid (90% CI), AUC0–12 h [5]: −36.3% (−52.8% to −14.1%)
RD sorafenib monotherapy vs. sorafenib + probenecid (90% CI), Cmax [5]: −39.2% (−54.6% to −18.7%)
RD sorafenib monotherapy vs. sorafenib + probenecid (90% CI), Ctrough [5]: −35.2% (−59.7% to 4.3%)
Cmax (CV%) geomean [6]: 467.3 (77) μg/mL
Ctrough (CV%) geomean [6]: 271.1 (282) μg/mL
decrease of geometric mean plasma AUC0–12 h with concomitant probenecid (vs sorafenib alone, decrease): 36.3%
decrease of plasma Cmax with concomitant probenecid (vs sorafenib alone, decrease): 39.2%
Structure (SMILES): CNC(=O)c1cc(Oc2ccc(NC(=O)Nc3ccc(Cl)c(C(F)(F)F)c3)cc2)cc[n+]1[O-] [Sorafenib-N-oxide, sorafenib-N-oxide]

Reference: article PMC7559746 (Pharmaceutics, 2020)
